Results as given in BigSolDB 2.1.

CCCCCC[n+]1csc2ccccc21.F[P-](F)(F)(F)(F)F
Conditions | solubility (mole fraction)
in furfural, 273.25 K | 0.201
in furfural, 276 K | 0.208
in furfural, 282.04 K | 0.234
in furfural, 290.19 K | 0.269
in furfural, 296.05 K | 0.297
in furfural, 301.03 K | 0.321
in furfural, 305.08 K | 0.345
in furfural, 308.23 K | 0.366
in furfural, 311.95 K | 0.385
in furfural, 315.95 K | 0.406
in furfural, 318.39 K | 0.424
in furfural, 321.62 K | 0.451
in furfural, 325.05 K | 0.479
in furfural, 327.64 K | 0.513
in furfural, 330.95 K | 0.55
in furfural, 333.5 K | 0.581
in furfural, 335.75 K | 0.616
in water, 278.15 K | 3.17e-05
in water, 282.75 K | 3.31e-05
in water, 289.15 K | 4.3e-05
in water, 294.15 K | 5.12e-05
in water, 298.15 K | 6.5e-05
in water, 303.15 K | 7.64e-05
in water, 308.15 K | 9.38e-05
in water, 313.15 K | 0.000109
in water, 318.15 K | 0.000129
in water, 323.15 K | 0.000156
in water, 328.15 K | 0.00021
in water, 330.15 K | 0.000235
in water, 333.05 K | 0.000256
in water, 338.05 K | 0.000322
in water, 342.75 K | 0.000404
in water, 347.95 K | 0.000463
in water, 352.95 K | 0.000543
in water, 357.75 K | 0.000595
in water, 362.95 K | 0.000659
in water, 367.95 K | 0.000743

CCCC[n+]1csc2ccccc21.F[P-](F)(F)(F)(F)F
Conditions | solubility (mole fraction)
in furfural, 273.3 K | 0.155
in furfural, 281.45 K | 0.185
in furfural, 288.25 K | 0.205
in furfural, 298.35 K | 0.246
in furfural, 302.93 K | 0.263
in furfural, 311 K | 0.3
in furfural, 317.62 K | 0.333
in furfural, 324.5 K | 0.364
in furfural, 331.25 K | 0.393
in water, 278.15 K | 6.76e-05
in water, 283.2 K | 8.72e-05
in water, 288.1 K | 0.000113
in water, 293.05 K | 0.000139
in water, 298.15 K | 0.000168
in water, 302.95 K | 0.000204
in water, 308.55 K | 0.000237
in water, 313.15 K | 0.000297
in water, 318.1 K | 0.000355
in water, 323 K | 0.000405
in water, 327.95 K | 0.000478
in water, 333.1 K | 0.0006
in water, 338.05 K | 0.000721
in water, 343.1 K | 0.000839
in water, 348 K | 0.001
in water, 353.15 K | 0.00116
in water, 357.9 K | 0.00142
in water, 363 K | 0.00175
in water, 367.9 K | 0.00198

CCCCCCCC[n+]1csc2ccccc21.F[P-](F)(F)(F)(F)F
Conditions | solubility (mole fraction)
in furfural, 271.1 K | 0.33
in furfural, 274.97 K | 0.35
in furfural, 278.47 K | 0.38
in furfural, 281.46 K | 0.396
in furfural, 285.15 K | 0.423
in furfural, 287.37 K | 0.445
in furfural, 289.48 K | 0.471
in furfural, 292.47 K | 0.5
in furfural, 296.07 K | 0.541
in furfural, 300.95 K | 0.597
in furfural, 305.47 K | 0.64
in furfural, 311.66 K | 0.711
in furfural, 314.97 K | 0.745
in furfural, 318.86 K | 0.786
in furfural, 321.52 K | 0.81
in furfural, 323.8 K | 0.829
in furfural, 327.08 K | 0.858
in water, 278.15 K | 1.79e-05
in water, 283.2 K | 2.1e-05
in water, 290.15 K | 2.61e-05
in water, 294.15 K | 3.12e-05
in water, 300.15 K | 4.01e-05
in water, 308.15 K | 5.5e-05
in water, 313.15 K | 7e-05
in water, 318.15 K | 9.11e-05
in water, 323.15 K | 0.000107
in water, 328.15 K | 0.000128
in water, 333.15 K | 0.000142
in water, 338.15 K | 0.000163
in water, 342.95 K | 0.000179
in water, 348.15 K | 0.000196
in water, 352.75 K | 0.000212
in water, 358.05 K | 0.000235
in water, 363.15 K | 0.000261
in water, 367.75 K | 0.000285

CCCCC[n+]1csc2ccccc21.F[P-](F)(F)(F)(F)F
Conditions | solubility (mole fraction)
in furfural, 272.3 K | 0.085
in furfural, 277.25 K | 0.0866
in furfural, 284.65 K | 0.0981
in furfural, 290.85 K | 0.108
in furfural, 296.15 K | 0.118
in furfural, 302.85 K | 0.131
in furfural, 313.5 K | 0.151
in furfural, 321.04 K | 0.171
in furfural, 324.75 K | 0.189
in furfural, 330 K | 0.214
in furfural, 335.04 K | 0.239
in water, 278.15 K | 2.36e-05
in water, 282.35 K | 2.97e-05
in water, 290.15 K | 4.01e-05
in water, 295.15 K | 4.89e-05
in water, 302.15 K | 6.5e-05
in water, 308.15 K | 8.63e-05
in water, 313.25 K | 0.00011
in water, 318.15 K | 0.00013
in water, 323.15 K | 0.000153
in water, 328.15 K | 0.000189
in water, 330.05 K | 0.000205
in water, 333.15 K | 0.000226
in water, 338.05 K | 0.000259
in water, 342.75 K | 0.000293
in water, 348.15 K | 0.000356
in water, 353.15 K | 0.000466
in water, 357.95 K | 0.000676
in water, 363.15 K | 0.000878
in water, 368.05 K | 0.00109

CCCCCCC[n+]1csc2ccccc21.F[P-](F)(F)(F)(F)F
Conditions | solubility (mole fraction)
in furfural, 272.2 K | 0.27
in furfural, 274.55 K | 0.276
in furfural, 280.85 K | 0.297
in furfural, 284.65 K | 0.318
in furfural, 291.71 K | 0.35
in furfural, 296.7 K | 0.38
in furfural, 301.2 K | 0.41
in furfural, 304.21 K | 0.433
in furfural, 307.6 K | 0.451
in furfural, 310.41 K | 0.47
in furfural, 313.72 K | 0.487
in furfural, 315.6 K | 0.503
in furfural, 318.68 K | 0.532
in furfural, 322.88 K | 0.561
in furfural, 325.58 K | 0.582
in furfural, 327.81 K | 0.601
in furfural, 329.99 K | 0.622
in furfural, 331.87 K | 0.644
in water, 278.15 K | 2.26e-05
in water, 282.35 K | 2.91e-05
in water, 288.15 K | 3.5e-05
in water, 294.15 K | 4.2e-05
in water, 300.15 K | 5.5e-05
in water, 308.15 K | 7.07e-05
in water, 313.05 K | 8.48e-05
in water, 318.15 K | 0.000106
in water, 323.15 K | 0.000124
in water, 328.15 K | 0.000155
in water, 333.15 K | 0.000186
in water, 338.05 K | 0.00023
in water, 342.75 K | 0.000272
in water, 348.45 K | 0.000311
in water, 353.15 K | 0.000357
in water, 358.15 K | 0.00041
in water, 363.35 K | 0.000464
in water, 368.55 K | 0.000521
